Data as given in US8778974B2, “Trisubstituted 1,2,4 triazoles” (Janssen Pharmaceutica NV, priority 2008, dated 2014).

Columns and labels:
[1] = biological target: T1, hα7-wt nAChR-expressing GH4Cl cells (Homo sapiens, UniProt P36544); assay: Patch-clamp current recording (whole-cell), potentiation of choline 1 mM response, PAM type; type: cell-based; parameters: key to Pam type: Type 0 compounds minimally enhance the effect size of the current elicited by 1 mM choline.; Type 1 compounds enhance the effect size of the current elicited by 1 mM choline but minimally alter the kinetics of the receptor.; Type 2 compounds enhance the effect size of the current elicited by 1 mM choline while reducing the rate and/or the extent of desensitization.; Type 3 compounds enhance the effect size of the current elicited by 1 mM choline. When tested at higher concentrations up to 10 μM they completely inhibit desensitization, in particular a 1 mM choline application of 250 milliseconds.; Type 4 compounds allow for an initial desensitization of the receptor followed by a re-opening of the receptor during agonist application; details: for EC50: according to Ex. D.2, "<5" = no top plateau reached at maximal concentration, read-out: Potency (pEC50) (converted); for Pam type: patch-clamp current recording, 1 mM choline
T1 construct: expressed in transfected cells
T1 sequence (P36544 23-502): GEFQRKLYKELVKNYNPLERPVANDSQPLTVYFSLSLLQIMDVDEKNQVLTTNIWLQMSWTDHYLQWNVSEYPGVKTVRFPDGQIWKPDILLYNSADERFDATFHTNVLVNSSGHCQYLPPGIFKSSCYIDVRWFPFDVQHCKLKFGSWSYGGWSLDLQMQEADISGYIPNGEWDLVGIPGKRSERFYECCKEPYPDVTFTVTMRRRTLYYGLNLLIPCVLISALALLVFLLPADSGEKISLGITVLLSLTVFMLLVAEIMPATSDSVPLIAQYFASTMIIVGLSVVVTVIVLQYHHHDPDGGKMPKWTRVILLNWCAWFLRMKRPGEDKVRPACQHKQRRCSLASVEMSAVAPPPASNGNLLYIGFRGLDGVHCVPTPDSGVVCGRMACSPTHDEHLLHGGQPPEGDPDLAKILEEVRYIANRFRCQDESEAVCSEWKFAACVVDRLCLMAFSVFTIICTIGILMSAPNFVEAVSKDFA
Method: The compounds of the present invention are classified as type 1-4, based on qualitative kinetic properties, as determined by whole-cell voltage-clamp recordings. This classification is based on the effect of an α7 PAM compound, as described hereinbefore, on the signal elicited by an agonist application. In particular, said agonist is choline at a concentration of 1 mM. In a preferred experimental setting, said α7 PAM compound and choline are simultaneously applied to the cell, as described hereinafter. Desensitization is defined as the closure of the receptor upon activation during the application of the agonist in whole-cell voltage-clamp electrophysiology measurements seen as the reduction of the […] current after initial activation by the agonist.
The definition of the PAM types 1-4 is described hereinafter: • Type 0 compounds minimally enhance the effect size of the current elicited by 1 mM choline. • Type 1 compounds enhance the effect size of the current elicited by 1 mM choline but minimally alter the kinetics of the receptor. In particular, the rate and the extent of desensitization, elicited by the agonist, is not affected. The compound-modulated response to 1 mM choline, therefore, is a close to linear scaling of the 1 mM choline response in absence of the α7 PAM compound. • Type 2 compounds enhance the effect size of the current elicited by 1 mM choline while reducing the rate and/or the extent of desensitization. • Type 3 compounds enhance the effect size of the current elicited by 1 mM choline. […] At low-potency concentrations of the α7 PAM compound, the agonist-induced activation, which is followed by desensitization, can still be separated from the compound-induced re-opening as an initial inward current-maximum. At higher potency concentrations of the α7 PAM compound, the re-opening occurs faster than the closure due to desensitization so that the initial current-maximum disappears.
Patch-clamp Current Recording
Patch-clamp recording from mammalian cells has provided a powerful means of assessing the function of membrane-bound proteins thought to be subunits of ligand-gated ion channels. Activation of such proteins by endogenous or exogenous ligands cause opening of a pore associated with the receptor through which ions flow down their electrochemical gradient. In the case of the hα7-wt nAChR-expressing GH4Cl recombinant cell line the preferential permeability to calcium of this receptor means that calcium flows into the cell upon activation by ACh, choline and other nicotinic ligands giving rise to a calcium current. Since this receptor rapidly desensitizes in the presence of agonist it is important an application system is used which is capable of very rapid switching of solutions (<100 ms) to prevent partial or full desensitisation of receptor responses coincident with the time of agonist application. Consequently, a second convenient technique to assess the enhancement of nicotinic efficacy is patch-clamp recording from hα7-wt nAChR-expressing GH4Cl cells coupled with a rapid-application system.
• a) Assay buffers • The external recording solution consisted of 152 mM NaCl, 5 mM KCl, 1 mM MgCl2, 1 mM Calcium, 10 mM HEPES; pH 7.3. The internal recording solution consisted of 140 mM CsCl, 10 mM HEPES, 10 mM EGTA, 1 mM MgCl2, pH 7.3. • b) Patch-clamp recording was carried out using a Patch-clamp amplifier (Multiclamp 700A, Axon Instruments, Calif., USA). hα7-wt nAChR-expressing GH4Cl cells were patch-clamp in the whole cell configuration (Hamill et al, 1981) with a borosilicate glass electrode of 1.5-3 MΩ tip resistance when filled with the internal recording solution. Recordings were made on cells with membrane resistance >500 MΩ and more preferably 1GΩ and series resistance <15 MΩ with at least 60% series resistance compensation. […]

Compound	EC50 [1]	Pam type [1]	melting point
CCNC(=O)Cc1nc(Nc2ccc3c(c2)OC(F)(F)O3)nn1-c1cc(C)nc(C)c1 [E200, 3-[(2,2-difluoro-1,3-benzodioxol-5-yl)amino]-1-(2,6-dimethyl-4-pyridinyl)-N-ethyl-1H-1,2,4-triazole-5-acetamide]	407 nM	2	280.9 °C
Cc1cc(-n2nc(Nc3cccc(Cl)c3F)nc2CC(=O)NC2CCC2)cc(C)n1 [E152]	245 nM	2	234 °C
Cc1cc(-n2nc(Nc3cccc(OC(F)(F)F)c3)nc2CC(=O)NCC2CC2)cc(C)n1 [E165]	209 nM	1	247.5 °C
CCc1cc(-n2nc(Nc3ccc(F)c(F)c3)nc2C[C@H](C)O)ccn1 [E131]	1380 nM	2	168 °C
CC[C@H](O)Cc1nc(Nc2cccc(Cl)c2)nn1-c1ccc(C)nc1 [E196]	912 nM	2	110.4 °C
Cc1cc(-n2nc(Nc3cc(F)c(F)c(F)c3)nc2C[C@H](C)O)cc(C)n1 [E208]	741 nM	2	199.6 °C
Cc1cc(-n2nc(Nc3cccc(OC(F)(F)F)c3)nc2CCC(=O)N(C)C)ccn1 [E73]	135 nM	4	215.4 °C
C[C@H](O)Cc1nc(Nc2ccc(F)c(C(F)(F)F)c2)nn1-c1cccc(F)c1 [E18]	3310 nM	–	161 °C
Cc1cc(-n2nc(Nc3ccc(F)c(F)c3)nc2CC(=O)NC2CC2)cc(C)n1 [E168]	513 nM	2	279.3 °C
Cc1cc(-n2nc(Nc3cccc(Cl)c3F)nc2CC(=O)NC2CC2)cc(C)n1 [E150]	417 nM	2	248.8 °C
CNc1ncccc1-n1nc(Nc2cccc(OC(F)(F)F)c2)nc1CCC(=O)N(C)C [E6, N,N-Dimethyl-1-[2-(methylamino)-3-pyridinyl]-3-[[3-(trifluoromethoxy)phenyl]amino]-1H-1,2,4-triazole-5-propanamide]	851 nM	–	212.8 °C
CC[C@H](O)Cc1nc(Nc2cc(F)c(F)c(F)c2)nn1-c1ccnc(C)c1 [E187, (alphaS)-alpha-ethyl-1-(2-methyl-4-pyridinyl)-3-[(3,4,5-trifluorophenyl)amino]-1H-1,2,4-triazole-5-ethanol]	224 nM	2	177.4 °C
Cc1cc(-n2nc(Nc3ccc(F)c(C(F)(F)F)c3)nc2CCCO)ccn1 [E7, 3-[[4-Fluoro-3-(trifluoromethyl)phenyl]amino]-1-(2-methyl-4-pyridinyl)-1H-1,2,4-triazole-5-propanol]	1000 nM	2	197.6 °C
Cc1cc(-n2nc(Nc3ccc(F)c(F)c3F)nc2C[C@H](C)O)ccn1 [E277]	6310 nM	–	131.4 °C
Cc1cc(-n2nc(Nc3ccc(F)c(F)c3F)nc2CC(=O)NC2CCC2)cc(C)n1 [E212]	251 nM	2	249.4 °C
CC[C@H](O)Cc1nc(Nc2ccc(F)c(F)c2)nn1-c1ccnc(C)c1 [E30]	676 nM	2	171.1 °C
Cc1cc(-n2nc(Nc3ccc(F)c(F)c3)nc2C[C@@H](C)O)cc(C)n1 [E197]	1780 nM	2	225.1 °C

Compound	EC50 [1]	Pam type [1]	melting point
Cc1cc(-n2nc(Nc3ccc(F)c(F)c3F)nc2C[C@H](C)O)cc(C)n1 [E189, (alphaS)-1-(2,6-dimethyl-4-pyridinyl)-alpha-methyl-3-[(2,3,4-trifluorophenyl)amino]-1H-1,2,4-triazole-5-ethanol]	631 nM	2	138 °C
CC[C@H](O)Cc1nc(Nc2cccc(Cl)c2)nn1-c1ccnc(C)c1 [E139]	324 nM	2	126.7 °C
Cc1cc(-n2nc(Nc3cccc(OC(F)(F)F)c3)nc2CC(=O)NC2CCC2)cc(C)n1 [E184]	257 nM	2	264.4 °C
COc1ccc(-n2nc(Nc3cc(OC)cc(C(F)(F)F)c3)nc2C[C@H](C)O)cc1 [E146]	~363 nM	–	135.4 °C
COCCCc1nc(Nc2ccc(F)c(C(F)(F)F)c2)nn1-c1ccncc1Cl [E12, 1-(3-Chloro-4-pyridinyl)-N-[4-fluoro-3-(trifluoromethyl)phenyl]-5-(3-methoxypropyl)-1H-1,2,4-triazol-3-amine]	2240 nM	–	105.3 °C
CNC(=O)CCc1nc(Nc2cccc(OC(F)(F)F)c2)nn1-c1ccnc(C)c1 [E54]	2290 nM	2	153.7 °C
COc1cc(Nc2nc(C[C@H](C)O)n(-c3ccc(C)nc3)n2)cc(C(F)(F)F)c1 [E143]	912 nM	4	137.5 °C
CC[C@H](O)Cc1nc(Nc2ccc(OC)cc2)nn1-c1ccnc(C)c1 [E202]	2750 nM	2	133.2 °C
COc1cc(Nc2nc(C[C@H](C)O)n(-c3cccnc3)n2)cc(C(F)(F)F)c1 [E144]	2950 nM	–	145.5 °C
CC[C@H](O)Cc1nc(Nc2ccc(F)c(F)c2)nn1-c1cc(C)nc(C)c1 [E132]	240 nM	2	180.6 °C
CC[C@H](O)Cc1nc(Nc2cc(F)c(F)c(F)c2)nn1-c1cc(C)nc(C)c1 [E188, (alphaS)-1-(2,6-dimethyl-4-pyridinyl)-alpha-ethyl-3-[(3,4,5-trifluorophenyl)amino]-1H-1,2,4-triazole-5-ethanol]	224 nM	2	176.6 °C
COc1cccc(-n2nc(Nc3ccc(F)c(C(F)(F)F)c3)nc2CCC(=O)N(C)C)c1 [E61]	85.1 nM	–	173.6 °C
COCCc1nc(Nc2ccc(F)c(C(F)(F)F)c2)nn1-c1ccnc(C)c1 [E13]	240 nM	0	170.4 °C
Cc1cc(-n2nc(Nc3cccc(OC(F)(F)F)c3)nc2CC(=O)NC2CC2)cc(C)n1 [E182, N-cyclopropyl-1-(2,6-dimethyl-4-pyridinyl)-3-[[3-(trifluoromethoxy)phenyl]amino]-1H-1,2,4-triazole-5-acetamide]	331 nM	2	282.2 °C
Cc1cc(-n2nc(Nc3cccc(C(F)(F)F)c3F)nc2CC(=O)NC2CC2)cc(C)n1 [E257, N-Cyclopropyl-1-(2,6-dimethyl-4-pyridinyl)-3-[[2-fluoro-3-(trifluoromethyl)phenyl]amino]-1H-1,2,4-triazole-5-acetamide]	–	–	244.4 °C
CNC(=O)CCc1nc(Nc2ccc(F)c(F)c2)nn1-c1ccc2c(c1)OCCO2 [E2, 3-[(3,4-Difluorophenyl)amino]-1-(2,3-dihydro-1,4-benzodioxin-6-yl)-N-methyl-1H-1,2,4-triazole-5-propanamide]	1020 nM	3	–
CC[C@H](O)Cc1nc(Nc2ccc(OC)cc2)nn1-c1cc(C)nc(C)c1 [E203]	1350 nM	2	–
